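Briefly, cells in 96-well plates were exposed to five compound concentrations for 48 h, and endpoints were estimated by linear interpolation. The concentration for 50% growth inhibition is given as GI50. The concentration for full growth arrest is given as TGI.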
Columns and labels:
Assay in all cases: inhibition of tumour cell growth, NCI panel, 48 h; in the data active means GI50 below about 0.43 µM; inactive means the rest
[1] = test system: MDA-MB-231 breast
[2] = test system: HCT-15 colon
[3] = test system: HL-60(TB) leukemia
[4] = test system: SR leukemia
[5] = test system: COLO 205 colon
[6] = test system: LOX IMVI melanoma
[7] = test system: SNB-19 CNS
[8] = test system: K-562 leukemia
[9] = test system: NCI/ADR-RES ovarian
[10] = test system: A498 renal
[11] = test system: MALME-3M melanoma
[12] = test system: OVCAR-4 ovarian
[13] = test system: T-47D breast
[14] = test system: SK-MEL-5 melanoma
[15] = test system: MCF7 breast
[16] = test system: SK-OV-3 ovarian
[17] = test system: UACC-62 melanoma
[18] = test system: UO-31 renal
[19] = test system: A549 NSCLC
[20] = test system: OVCAR-3 ovarian
[21] = test system: 786-0 renal
[22] = test system: HCT-116 colon
[23] = test system: MOLT-4 leukemia
[24] = test system: SW-620 colon
[25] = test system: ACHN renal
[26] = test system: MDA-MB-435
[27] = test system: RPMI-8226 leukemia
[28] = test system: HOP-62 NSCLC
[29] = test system: BT-549 breast
[30] = test system: UACC-257 melanoma
[31] = test system: HCC-2998 colon
[32] = test system: SK-MEL-28 melanoma
[33] = test system: NCI-H460 lung
[34] = test system: SF-295 CNS
[35] = test system: SF-539 CNS
[36] = test system: CAKI-1 renal
[37] = test system: PC-3 prostate
[38] = test system: NCI-H522 lung
[39] = test system: DU-145 prostate
[40] = test system: SK-MEL-2 melanoma
[41] = test system: NCI-H226 lung
[42] = test system: U251 CNS
[43] = test system: OVCAR-5 ovarian
[44] = test system: SF-268 CNS
[45] = test system: TK-10 renal
[46] = test system: SN12C renal
[47] = test system: KM12 colon
[48] = test system: HOP-92 NSCLC
[49] = test system: IGROV1 ovarian
[50] = test system: NCI-H23 lung
[51] = test system: SNB-75 CNS
[52] = test system: HT29 colon
[53] = test system: CCRF-CEM leukemia
[54] = test system: OVCAR-8 ovarian
[55] = test system: RXF 393 renal
[56] = test system: M14 melanoma
[57] = test system: EKVX NSCLC

CCn1nc(-c2ccc(C(=O)OC)cc2)nc2c(=O)n(C)c(=O)nc1-2
594 nM: TGI [17]
3060 nM: TGI [44]
2280 nM: TGI [18]
643 nM: TGI [5]
2260 nM: TGI [25]
988 nM: TGI [10]
2420 nM: TGI [9] | TGI [51]
1610 nM: TGI [2]
1990 nM: TGI [38]
3270 nM: TGI [33]
1090 nM: TGI [8]
3160 nM: TGI [50]
1380 nM: TGI [42]
2580 nM: TGI [28]
260 nM: TGI [14]
1080 nM: TGI [30]
2320 nM: TGI [39]
1550 nM: TGI [35]
2230 nM: TGI [47]
372 nM: TGI [15]
2400 nM: TGI [52]
6330 nM: TGI [1]
2460 nM: TGI [36]
2240 nM: TGI [31]
566 nM: TGI [20]
11300 nM: TGI [53]
411 nM: TGI [46]
3390 nM: TGI [48]
inactive: GI50 [1] 461 nM | GI50 [4] 744 nM | GI50 [7] 1110 nM | GI50 [9] 484 nM | GI50 [12] 479 nM | GI50 [16] 1450 nM | GI50 [18] 1080 nM | GI50 [21] 1320 nM | GI50 [24] 676 nM | GI50 [25] 1080 nM | GI50 [28] 1070 nM | GI50 [29] 1550 nM | GI50 [31] 763 nM | GI50 [32] 1380 nM | GI50 [33] 488 nM | GI50 [34] 637 nM | GI50 [36] 1220 nM | GI50 [38] 484 nM | GI50 [39] 1110 nM | GI50 [40] 524 nM | GI50 [41] 1360 nM | GI50 [43] 460 nM | GI50 [44] 1120 nM | GI50 [45] 3110 nM | GI50 [48] 1720 nM | GI50 [49] 1080 nM | GI50 [50] 1220 nM | GI50 [51] 1190 nM | GI50 [53] 566 nM | GI50 [55] 1570 nM
1760 nM: TGI [27]
1420 nM: TGI [13]
6740 nM: TGI [45]
2040 nM: TGI [40]
2750 nM: TGI [16]
12100 nM: TGI [4]
2410 nM: TGI [23]
1010 nM: TGI [22]
836 nM: TGI [11]
2180 nM: TGI [24]
1150 nM: TGI [3]
3260 nM: TGI [55]
8220 nM: TGI [37]
2690 nM: TGI [41]
active: GI50 [2] 371 nM | GI50 [3] 319 nM | GI50 [5] 211 nM | GI50 [6] 375 nM | GI50 [8] 251 nM | GI50 [10] 166 nM | GI50 [11] 216 nM | GI50 [13] 332 nM | GI50 [14] 128 nM | GI50 [15] 148 nM | GI50 [17] 216 nM | GI50 [19] 413 nM | GI50 [20] 181 nM | GI50 [22] 283 nM | GI50 [23] 393 nM | GI50 [26] 162 nM | GI50 [27] 340 nM | GI50 [30] 306 nM | GI50 [35] 359 nM | GI50 [37] 347 nM | GI50 [42] 360 nM | GI50 [46] 193 nM | GI50 [47] 421 nM | GI50 [52] 266 nM | GI50 [54] 368 nM
3310 nM: TGI [21]
310 nM: TGI [26]
2880 nM: TGI [32]
1770 nM: TGI [43]
2450 nM: TGI [49]
1720 nM: TGI [19]
2370 nM: TGI [7]
1880 nM: TGI [12]
2990 nM: TGI [29]
1500 nM: TGI [6]
1980 nM: TGI [34]
1450 nM: TGI [54]

COc1ccc(C2=C(c3cn(C)c4ccccc34)C(=O)OC2)cc1OC
inactive: GI50 [1] 2420 nM | GI50 [2] 621 nM | GI50 [3] 1420 nM | GI50 [5] 1500 nM | GI50 [6] 4540 nM | GI50 [7] 4180 nM | GI50 [8] 441 nM | GI50 [9] 870 nM | GI50 [11] 9320 nM | GI50 [12] 6770 nM | GI50 [13] 4070 nM | GI50 [14] 3740 nM | GI50 [15] 713 nM | GI50 [16] 5600 nM | GI50 [17] 1280 nM | GI50 [18] 1930 nM | GI50 [19] 2670 nM | GI50 [20] 1250 nM | GI50 [21] 6670 nM | GI50 [22] 1160 nM | GI50 [23] 2800 nM | GI50 [24] 587 nM | GI50 [25] 7950 nM | GI50 [56] 938 nM | GI50 [28] 3000 nM | GI50 [29] 2790 nM | GI50 [30] > 100000 nM | GI50 [31] 2860 nM | GI50 [32] 9870 nM | GI50 [33] 2210 nM | GI50 [34] 2650 nM | GI50 [57] 4640 nM | GI50 [36] 747 nM | GI50 [38] 1190 nM | GI50 [39] 3130 nM | GI50 [40] 4340 nM | GI50 [41] 3260 nM | GI50 [42] 2640 nM | GI50 [43] 5960 nM | GI50 [44] 16800 nM | GI50 [45] > 100000 nM | GI50 [46] 6810 nM | GI50 [47] 1450 nM | GI50 [49] 1720 nM | GI50 [50] 4040 nM | GI50 [52] 688 nM | GI50 [54] 4690 nM | GI50 [55] 1920 nM
6480 nM: TGI [3]
5450 nM: TGI [20]
active: GI50 [4] 411 nM | GI50 [10] 374 nM | GI50 [26] 265 nM
801 nM: TGI [26]
3500 nM: TGI [10]
> 100000 nM: TGI [1] | TGI [2] | TGI [4] | TGI [6] | TGI [7] | TGI [8] | TGI [9] | TGI [11] | TGI [12] | TGI [13] | TGI [14] | TGI [15] | TGI [16] | TGI [17] | TGI [18] | TGI [19] | TGI [21] | TGI [22] | TGI [23] | TGI [24] | TGI [25] | TGI [56] | TGI [28] | TGI [29] | TGI [30] | TGI [31] | TGI [32] | TGI [33] | TGI [34] | TGI [57] | TGI [36] | TGI [38] | TGI [39] | TGI [40] | TGI [41] | TGI [42] | TGI [43] | TGI [44] | TGI [45] | TGI [46] | TGI [47] | TGI [49] | TGI [50] | TGI [52] | TGI [54]
6110 nM: TGI [55]
27900 nM: TGI [5]

Reference: PubChem BioAssay (NCI)
